# Reference: patent EP0719546B1, “LUV comprising saturated phospholipids and method of making the same” (THE LIPOSOME COMPANY, INC., priority 1987, dated 1988)
# Where a name gives a salt, the structure may show the parent alone.
# Tests used:
# [1] = Vincristine trapping efficiency, pH gradient loading; assay type: physicochemical; conditions: DSPC/cholesterol (55:45) liposomes, 300 mM citric acid pH 4.0, 200 nm filter, drug to lipid approximately 0.17:1, external pH about 7.0, 60°C for 10 minutes
# Procedure: These MLVs (100 mg total lipid/ml buffer) were extruded 10 times through a 200 nm pore size polycarbonate filter in a thermojacket LUVET heated to 60°C. Liposomes were added to a solution of 1 mg/ml vincristine sulfate (Oncovin, available from Eli Lilly and Co., Indianapolis, IN) to achieve a drug to total lipid weight ratio of approximately 0.17:1. To this was added a sufficient amount of 1.0 M Na2HPO4 to bring the pH of the solution to about 7.0. The samples were then heated at 60°C for 10 minutes at which time the drug was encapsulated inside the liposomes at a trapping efficiency in excess of 98%.
# The above was repeated using EPC/cholesterol and HSPC/cholesterol.
# ascites L1210 tumor line = experiment: Antitumor activity of vincristine, L1210 lymphocytic leukemia model; assay type: in vivo, DBA/2J mice; conditions: L1210 model in mice
# Procedure: The antitumor activity of free and liposomal vincristine was assessed employing an L1210 lymphocytic leukemia model. DBA/2J mice (6 mice per group) were injected i.p. with 1 X 10^6 L1210 cells derived from the ascites fluid of a previously infected mouse. Liposomal vincristine made according to Example 27 was administered i.v. at various times after tumor innoculation and animal weights as well as mortality rates were monitored.
# The above example was repeated by administering free vincristine and empty liposomes.
# [2] = Drug uptake into EPC large unilamellar vesicles with proton gradient; assay type: physicochemical; conditions: 300 mM citric acid pH 4.0 inside, pH 7.5 outside; for encapsulation by the vesicles: EPC LUVs (100 nm filters), 25°C
# Procedure: Egg phosphatidylcholine (15 mg) was dispersed in 2 ml of 300 mM citric acid, pH 4.0 and the resulting MLVs frozen in liquid nitrogen and thawed in warm water (approximately 35°C) a total of five times. The lipid was then extruded 10 times through two stacked 100 nm pore size polycarbonate filters using the LUVET procedure. A proton gradient was created by passage of the vesicles over a Sephadex G-50 (fine) column (1.5 cm x 10 cm) preequilibrated with 300 mM NaCl, 20 mM HEPES, pH 7.5. An aliquot of the large unilamellar vesicles eluted from the column was diluted in 300 mM NaCl, […], pH 7.5 to a lipid concentration of 0.75 mgml^-1 in a total volume of 2 ml and then daunorubicin (113 ug) added from a stock solution (5.64 mgml^-1) in distilled water. The mixture was incubated at room temperature (25°C) and at intervals of 2, 10, 20, 30, 60 and 120 minutes, 100 ul aliquots were centrifuged through 1 ml "minicolumns" of Sephadex G-50 (fine) to remove any unencapsulated daunorubicin from the vesicles. The concentration of entrapped daunorubicin was determined from its absorbance at 500 nm in a Shimadzu UV-265 spectrophotometer following solubilization of the vesicles in 1% Triton X-100. Lipid was quantified by liquid scintillation counting using tracer levels of ^3H-DPPC. In excess of 98% of the daunorubicin was encapsulated by the vesicles giving a drug to lipid molar ratio of 1:5.
# (§1) The materials and procedures of Example 30 were employed except that epirubicin (116 ug) was addded to the vesicle suspension (2 ml) from a stock solution (5.8 mgml^-1). Epirubicin uptake was quantified from its absorbance at 500 nm following solubilization of the vesicles in 1% Triton X-100. Epirubicin encapsulation by the vesicles was in excess of 98% giving a drug to lipid molar ratio of 1:5.
# as §1, with “mitoxanthrone (103” for “epirubicin (116”, “added” for “addded”, “(2” for “(5.8”, “Mitoxantrone” for “Epirubicin”, “670” for “500”, “2%” for “1%”
# The materials and procedures of Example 30 were employed except that cisplatin (200 uM) was combined with the liposome suspension.
# SC-115 cells = experiment: SC-115 tumor growth in Shinogi mice; assay type: in vivo, Male Shinogi mice; conditions: SC-115 tumor, 3.25, 6.5 and 13 mg/kg i.v., 3 injections at seven day intervals
# Procedure: Male Shinogi mice (25-40g, 9 per group) were injected subcutaneously with 1X10^5 SC-115 cells obtained from a primary tumor in previously inoculated mice. Tumor growth was monitored by palpation and tumor measurements with a vernier caliper. Upon growth of the tumor to 0.5-2.0 g (tumor weight = [width^2 x length]/2, measurements in mm), mice were administered liposomal doxorubicin dose of 13 mg/kg i.v. at seven day intervals (3 injections of the indicated dose). Tumor growth was monitored 3 times weekly for 50 days post first treatment or until the tumor weight exceeded 9 g at which time the animal was sacrificed. Treatment doses were based on the initial animal weights prior to tumor inoculation.
# The above procedure was repeated and the mice were administered saline or empty liposomes (administered at a dose equivalent to that given for a liposomal doxorubicin dose of 13 mg/kg).
# The above procedure was repeated at 3.25 mg/kg dose and 6.5 mg/kg dose for free and liposomal doxorubicin.
# [3] = In vitro release of doxorubicin from liposomes under dialysis; assay type: physicochemical; conditions: vesicles containing 300 mM citrate (pH 4.0), drug to lipid (wt/wt) ratio 1:10 to 1:3, over 24 hours
# Procedure: The materials and-procedures of Example 6 were employed to determine the in vitro stability of the liposome-doxorubicin preparations. Release experiments were performed as follows: 10-fold dilute liposome samples were dialyzed for 24 hours against 1000 volumes of 20 mM HEPES, 150 mM NaCl (pH 7.5) at 37°C. At 1, 2, 4, 8, 10, and 24 hours post-preparation, a 150 ul aliquot was removed and the entrapped doxorubicin was determined.
# EPC/cholesterol (55/45 mole ratio) was dried from chloroform to a thin film on a 500 ml capacity round bottom flask (400 mg total lipid). The film was hydrated with 4.0 ml of 300 mM citric acid at pH 4.0, forming MLVs. These MLVs were extruded through 2 stacked 0.22 um Nucleopore membrafil filters followed by extrusion 10 times through a 0.1 um Nucleopore membrafil (tortuous path) filter. To 1.0 ml of the resulting filtrate sample was added 275 ul of 1M Na2CO3, which raised the exterior pH to 8.3. An aliquot (0.6 ml) was heated for 3 minutes at 60°C, as was a 10 mg sample of doxorubicin. The liposome aliquot was added to the 10 mg doxorubicin and heated at 60°C for 5 minutes. The sample was divided into 2 parts. […] At 1 hour, a 150 ul aliquot was removed and analyzed for doxorubicin and lipid phosphate as previously described, after passage down a 1.0 ml Sephadex column equilibrated in the respective buffer. […]
# [4] = Doxorubicin entrapment (trapping) efficiency, transmembrane pH gradient loading; assay type: physicochemical
# Procedure: In order to determine whether an ionizable antineoplastic agent will load into liposomes in response to a transmembrane pH gradient, EPC-containing liposomes are made (about 1.0 mM EPC) with a ^3H-DPPC tracer and with a relatively acidic or basic internal medium such as 300 mM citric acid at about pH 4.0. These liposomes are extruded about 10 times according to the LUVET procedure through 2 100 nm filters, followed by adjustment of the external pH to a relatively basic or acidic pH, for example, sodium carbonate, at about pH 11.0. Following the formation of the pH gradient, the agent to be loaded, spiked with a radioactive isotope of the agent, is admixed with the liposomes to about 200 uM (per 1.0 mM lipid used). The liposomes are separated from free, unentrapped agent on G50-M Sephadex minicolumns at 500 X g for 3 minutes into 13 X 100 mm tubes, and radioactivity counted in a scintillation counter. Uptake of the drug in nmoles per umole of lipid is then plotted over incubation time. One hundred percent of the available doxorubicin is taken up into liposomes under these conditions.
# In the case of doxorubicin, commercially available forms, such as powdered, solid, and methylparaben-containing forms (Adriamycin R.D.F., Adria Laboratories, Inc., Columbus, Ohio) may be used in the invention. When the methylparaben-containing form is employed, an aqueous solution such as saline may be added to that form, thereby dissolving it, followed by the admixing of this suspension with the liposomes which have the transmembrane pH gradient across their bilayers. Such admixing at 60°C for about 10 minutes results in more than about 98% encapsulation of the doxorubicin.
# To determine entrapment efficiency of the liposome preparations, free and liposome encapsulated doxorubicin was monitored spectrophotometrically employing a Shimadzu UV-160 spectrophotometer as follows: the liposomal-doxorubicin samples were diluted with 20 mM Hepes, 250 mM NaCl (pH 7.5) to achieve approximate doxorubicin concentrations between 0.05-0.10 mM. The following sequence of measurements was made; (1) the absorbance at 600 nm of the diluted sample was adjusted to zero; (2) the sample was alkalinized to pH 10.5 with 1.0 N NaOH (0.02 ml/1.0 ml of sample) and the absorbance at 600 nm was recorded within 2 minutes; (3) the spectrophotometer was zeroed against a 0.2% Triton X-100 solution, and (4) the absorbance at 600 nm of the liposomal-doxorubicin sample to which Triton X-100 had been added (0.02 ml 20% Triton X-100 wt./wt./1.0 ml of sample) was determined. Free:total doxorubicin ratios were calculated as the absorbance at 600 nm upon NaOH addition divided by the absorbance after Triton X-100 addition.
# To relate the pH-dependent spectral response technique to actual free and trapped drug levels, vesicle entrapped doxorubicin was determined as follows: A small aliquot of the liposomal-doxorubicin solution was passed down Sephadex G-50 gel columns equilibrated in 20 mM Hepes, 150 mM NaCl (pH 7.5) to separate free from liposome-associated drug. The liposome-containing eluant as well as aliquots of the original solutions were assayed for phospholipid and doxorubicin by phosphorus analysis and optical density at 480 nm, respectively as previously described in Mayer et al., (1986), Biochim Biophys. Acta., 857:123.
# The materials and procedures of Example 3 were employed, but entrapment efficiency of liposome encapsulated doxorubicin was monitored by comparison of the color resulting from addition of an aliquot (0.2 ml) of the liposomes to 1.0 N NaOH to a color chart.
# After completion of the entrapment procedure according to Example 6, 20 ul of the doxorubicin-liposomes were diluted to 200 ul with 20 mM HEPES, 150 mM NaCl (pH 7.5). An aliquot of this diluted sample (20 ul) was assayed for lipid phosphate by the procedure of Bartlett, J. Biol. Chem. 1959, 234:466-468. […]
structure (smiles),measurement,setting,value
"CC[C@]1(O)C[C@H]2CN(CCc3c([nH]c4ccccc34)[C@@](C(=O)OC)(c3cc4c(cc3OC)N(C=O)[C@H]3[C@@](O)(C(=O)OC)[C@H](OC(C)=O)[C@]5(CC)C=CCN6CC[C@]43[C@@H]65)C2)C1 [vincristine, vincristine sulfate]",trapping efficiency,[1],> 98%
same,efficacy against the ascites L1210 tumor line,ascites L1210 tumor line,no efficacy
COc1cccc2c1C(=O)c1c(O)c3c(c(O)c1C2=O)C[C@@](O)(C(C)=O)C[C@@H]3O[C@H]1C[C@H](N)[C@H](O)[C@H](C)O1 [daunorubicin],encapsulation by the vesicles,[2],> 98%
"N.N.[Cl][Pt][Cl] [Cisplatin, cisplatin]",accumulation into liposomes by the transmembrane pH gradient,"[2]; EPC LUVs, 200 uM drug",not accumulated
"COc1cccc2c1C(=O)c1c(O)c3c(c(O)c1C2=O)C[C@@](O)(C(=O)CO)C[C@@H]3O[C@H]1C[C@H](N)[C@@H](O)[C@H](C)O1 [Epirubicin, epirubicin]",encapsulation by the vesicles,[2],> 98%
"O=C1c2c(O)ccc(O)c2C(=O)c2c(NCCNCCO)ccc(NCCNCCO)c21 [Mitoxantrone, mitoxanthrone]",encapsulation by the vesicles,[2],> 98%
COc1cccc2c1C(=O)c1c(O)c3c(c(O)c1C2=O)C[C@@](O)(C(=O)CO)C[C@@H]3O[C@H]1C[C@H](N)[C@H](O)[C@H](C)O1 [doxorubicin],tumor growth inhibition,SC-115 cells,dose dependent tumor growth inhibition
same,drug released,[3],less than 5%
same,available doxorubicin taken up into liposomes,"[4]; EPC liposomes (about 1.0 mM), 300 mM citric acid pH 4.0 inside, 100 nm filters, external sodium carbonate, about 200 uM agent",One hundred
same,trapping efficiency,"[4]; Example 14: HSPC/cholesterol 2.4:1 weight ratio, 300 mM citric acid pH 4.0, 0.2 um filter, external pH 8.5, 15 minutes at 60°C, color test",greater than 95%
same,entrapment efficiency,"[4]; Example 21: DSPC liposomes, 300 mM citric acid pH 4.0, 0.2 um filters, external pH 7.8, drug to lipid ratio 0.25:1, 60°C for 5 minutes",greater than 95%
same,drug entrapped by the liposomes,"[4]; Example 26: EPC/cholesterol (55:45 mol ratio), methods of Example 2",Greater than 98%
same,encapsulation of the doxorubicin,"[4]; methylparaben-containing form (Adriamycin R.D.F.) dissolved in saline, admixed with pH gradient liposomes at 60°C for about 10 minutes",more than 98%
same,entrapment,"[4]; vesicles containing 300 mM citrate (pH 4.0), drug to lipid (wt/wt) ratio between 1:10 and 1:3",about 100%
same,trapping efficiencies,"[4]; vesicles, drug to lipid ratios (wt/wt) 0.1:1 to 0.3:1, neutral, negatively charged or saturated phospholipids, varying cholesterol",about 100%
